Nine compounds from article PMC5602078, “Rapid screening and identification of ACE inhibitors in snake venoms using at-line nanofractionation LC-MS” (Analytical and Bioanalytical Chemistry, 2017) can be followed below.

Where two headings read alike, the source gives them in different places. Where a SMILES comes first, the peptide text is derived from it. Where no end group is shown, it is not given here. [ ]: non-standard residue; d: D form. Phe(4-NO2) = N[C@@H](Cc1ccc([N+](=O)[O-])cc1)C(=O)O; pGlu = O=C1CC[C@@H](C(=O)O)N1; 2Abz = Nc1ccccc1C(=O)O

Assay [1] addresses T1, angiotensin-converting enzyme (ACE) from rabbit lung (Oryctolagus cuniculus, UniProt P12822).
T1 sequence (P12822 34-1310): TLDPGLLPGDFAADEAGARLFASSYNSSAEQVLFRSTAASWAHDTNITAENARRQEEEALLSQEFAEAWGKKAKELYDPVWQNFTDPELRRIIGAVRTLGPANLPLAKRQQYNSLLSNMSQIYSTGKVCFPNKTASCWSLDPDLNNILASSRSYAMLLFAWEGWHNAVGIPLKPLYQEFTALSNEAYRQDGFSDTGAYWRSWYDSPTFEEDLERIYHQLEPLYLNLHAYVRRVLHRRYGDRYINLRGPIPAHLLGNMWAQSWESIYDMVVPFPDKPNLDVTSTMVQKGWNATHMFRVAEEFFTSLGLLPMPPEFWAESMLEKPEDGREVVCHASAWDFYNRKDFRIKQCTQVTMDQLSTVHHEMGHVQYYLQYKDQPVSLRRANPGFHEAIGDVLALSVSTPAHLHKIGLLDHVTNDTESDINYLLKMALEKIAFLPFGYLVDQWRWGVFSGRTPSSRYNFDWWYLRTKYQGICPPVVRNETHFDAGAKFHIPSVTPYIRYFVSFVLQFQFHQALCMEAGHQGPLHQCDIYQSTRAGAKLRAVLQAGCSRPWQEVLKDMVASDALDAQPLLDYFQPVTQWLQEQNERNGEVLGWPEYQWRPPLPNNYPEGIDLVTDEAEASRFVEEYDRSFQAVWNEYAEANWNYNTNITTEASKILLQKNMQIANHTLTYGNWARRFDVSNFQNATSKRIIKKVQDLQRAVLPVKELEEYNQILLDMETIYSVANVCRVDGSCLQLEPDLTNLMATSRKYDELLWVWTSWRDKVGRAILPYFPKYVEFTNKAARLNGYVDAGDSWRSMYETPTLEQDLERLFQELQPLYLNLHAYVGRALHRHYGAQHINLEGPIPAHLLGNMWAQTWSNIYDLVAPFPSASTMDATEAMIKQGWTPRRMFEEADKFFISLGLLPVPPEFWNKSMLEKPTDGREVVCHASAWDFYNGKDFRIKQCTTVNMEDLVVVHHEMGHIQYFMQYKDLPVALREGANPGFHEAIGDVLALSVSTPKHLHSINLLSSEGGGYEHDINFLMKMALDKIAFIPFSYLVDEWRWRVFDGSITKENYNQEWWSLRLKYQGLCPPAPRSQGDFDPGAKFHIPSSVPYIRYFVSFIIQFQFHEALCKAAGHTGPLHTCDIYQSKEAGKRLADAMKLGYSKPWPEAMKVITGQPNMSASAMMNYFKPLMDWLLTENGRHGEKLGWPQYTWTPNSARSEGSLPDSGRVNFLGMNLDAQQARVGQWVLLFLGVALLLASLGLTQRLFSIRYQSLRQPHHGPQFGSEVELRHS
The experiment in a line: ACE bioactivity assay, dose-response (concentration-response) curves of synthetic peptides. Format: biochemical. Also noted: angiotensin-converting enzyme (ACE) from rabbit lung; purchased Sigma-Aldrich (Zwijndrecht, The Netherlands); host or cells: rabbit lung tissue.
Protocol: Water was purified using a Milli-Q Plus system from Millipore (Amsterdam, The Netherlands). Acetonitrile (ACN) (ULC/MS grade) and formic acid (FA) were obtained from Biosolve (Valkenswaard, The Netherlands). […] DMSO was obtained from Riedel-de Haën (Zwijndrecht, The Netherlands).
(§1) ACE was stored at −20 °C as a 1-U/mL solution in 50% glycerol/50% 0.15 M Tris-HCl pH 8.3 supplemented with 5 mM ZnCl2. […] The assay was performed in a 0.15 M Tris-HCl buffer pH 8.3 supplemented with 0.5 M NaCl. […] This solution was then added directly to the nanofractionated plates at room temperature using a Multidrop™ 384 Reagent Dispenser (Thermo Fisher Scientific, Ermelo, The Netherlands). The final volume of the assay was 75 μL/well. The readout of the assay was fluorescence measured with a Varioskan™ Flash Multimode Reader (Thermo Fisher Scientific, Ermelo, The Netherlands) at 320 nm excitation and 420 nm emission wavelength. The measurements were performed at 37 °C after 1 h and after 2 h from the start of addition of the assay solution to the plates. Between the two time points, the plates were incubated at 37 °C. The activity of ACE in the wells was expressed as the slope of the kinetic curve that resulted from the two time point measurements. The resulting slopes were normalized and plotted in a graph versus time of each nanofraction collected using the GraphPad Prism 6 software (La Jolla, CA, USA). The slopes were normalized by dividing each slope value with the median of all the values obtained in a single measurement.
The dose-response curves of all four synthetic peptides were determined and the IC50 values for each peptide were determined in the ACE bioactivity assay.
The serial dilutions of the peptides were tested in the assay using 1 mU/mL ACE enzyme and
40 µM substrate concentration.

Assay [2] has as its target T1, angiotensin-converting enzyme (ACE) from rabbit lung. Conditions: Fig. S1; for Vmax: normalized response.
Protocol: as §1
In the presence of an ACE inhibitor, a drop in the basal fluorescence is detected.
This was done by performing enzyme kinetic experiments using different substrate and enzyme concentrations. In total, five different enzyme concentrations (2.5, 5, 10, 20, and 40 mU) were tested in the ACE bioactivity assay, at eight substrate concentrations (5–500 μM), in a matrix fashion. […] Therefore, the results excluding the highest concentration tested (500 μM) were fitted into a Michaelis-Menten enzyme kinetic model. […] The data presented was normalized for comparison reasons (ESM Fig. S1). […] However, when using sufficiently long incubation times, low enzyme concentrations will yield a sufficient assay window for obtaining good S/N, also in combination with much lower than the Km substrate concentrations. In practice, these assay conditions allowed for two measurement points at 1 and 2 h after the beginning of the incubation resulting in repeatable slope determination of the enzymatic product formation.
Assay [3] has the same target. Format: biochemical. Also noted: angiotensin-converting enzyme (ACE) from rabbit lung; purchased Sigma-Aldrich (Zwijndrecht, The Netherlands); host or cells: rabbit lung tissue. Conditions: peptide in bioactive wells after LC nanofractionation of crude venom, sequenced by nanoLC-MS/MS.
Description: Water was purified using a Milli-Q Plus system from Millipore (Amsterdam, The Netherlands). Acetonitrile (ACN) (ULC/MS grade) and formic acid (FA) were obtained from Biosolve (Valkenswaard, The Netherlands). […] DMSO was obtained from Riedel-de Haën (Zwijndrecht, The Netherlands). Most snake venoms were obtained commercially from Kentucky Reptile Zoo (USA), Ventoxin (USA), Biotoxin (USA), Venom Supplies (Tanunda, Australia), and African Reptiles & Venoms (Johannesburg, South Africa). The Boiga irregularis and Gloydius blomhoffii venoms were kind gifts from Prof. Steve Mackessy (University of Northern Colorado, USA) and Prof. Sadaaki Iwanaga (Kyushu University, Japan), respectively. Lyophilized venoms were kept at −20 °C. Prior to analysis, snake venoms were diluted in water to an end concentration of approximately 5.0 ± 0.1 mg/mL. After analysis, the samples were kept at −80 °C for later re-analysis.
Liquid chromatography separation was performed on a Shimadzu (‘s-Hertogenbosch, The Netherlands) UPLC system controlled via the Shimadzu Lab Solutions software. Sample injection was performed with a Shimadzu SIL-30AC autosampler using a 50-μL injection volume for RPLC separation and a 20-μL injection volume for HILIC separation. A gradient separation was performed on a Waters (Milford, MA) xBridge C18 column (100 × 4.6 mm; 5 μm) with an xBridge C18 guard column (10 × 4.6 mm; 5 μm) in RPLC mode. In HILIC mode, an Atlantis™ HILIC silica column (150 × 2.1 mm; 3 μm) was used. The columns were thermostated at 37 °C in a Shimadzu CTD-30A column oven. The solvent delivery was performed with two Shimadzu LC-30AD parallel pumps with 0.6 and 0.15 mL/min total flow rates for RPLC and HILIC separation, respectively. The mobile phases consisted of eluent A (98% H2O, 2% ACN, and 0.1% FA) and eluent B (98% ACN, 2% H2O, and 0.1% FA). The setup was optimized and validated in RPLC mode using the following gradient: a linear increase from 0 to 30% B in 20 min followed by 5-min isocratic elution at 30% B and a subsequent decrease to 0% B in 1 min with a 5-min equilibration time. The snake venoms screening for ACE activity was performed both in RPLC and HILIC mode. In the RPLC mode, venoms were analyzed using a 20-min linear gradient from 0 to 50% B followed by a linear increase to 90% B in 2 min and then a 2-min isocratic elution at 90% B before going back to 0% B in 1 min. The column was then equilibrated for 5 min. In the HILIC mode, separation started at 50% B and decreased linearly to 0% B in 20 min. This was followed by 4-min column washing at 0% B and a subsequent increase to 50% B in 1 min. The column was then equilibrated for 10 min. After the column, a flow split was introduced in a 1:9 ratio. The larger flow portion was directed to a Gilson 235P autosampler for 6-s nanofractionation onto black 384-well plates (Greiner Bio One, Alphen aan den Rijn, The Netherlands). The nanofractionated plates were subsequently dried in a Christ Rotational Vacuum Concentrator (Salm en Kipp, Breukelen, The Netherlands) RVC 2−33 CD plus and then stored at −20 °C until use. Ariadne, an in-house written software, was used to control the nanofractionation. The smaller flow portion was directed towards a Shimadzu SPD-M20A prominence diode array detector followed by a Waters Ultima quadrupole–time-of-flight (q–TOF) mass spectrometer equipped with an electrospray ionization (ESI) source. […]

For `CC[C@H](C)[C@H](NC(=O)[C@@H]1CCC(=O)N1)C(=O)N[C@@H](Cc1c[nH]c2ccccc12)C(=O)N1CCC[C@H]1C(=O)N[C@@H](CCCNC(=N)N)C(=O)N1CCC[C@H]1C(=O)N[C@@H](Cc1c[nH]cn1)C(=O)N[C@H](C(=O)N1CCC[C@H]1C(=O)N1CCC[C@H]1C(=O)O)C(C)C` ([pGlu]IWPRPHVPP-OH), in assay [1], the IC50 was found to be 1.01 µM.

As to `CC(C)C[C@H](NC(=O)[C@@H]1CCC(=O)N1)C(=O)N[C@@H](Cc1c[nH]c2ccccc12)C(=O)N1CCC[C@H]1C(=O)N[C@@H](CCCNC(=N)N)C(=O)N1CCC[C@H]1C(=O)N[C@@H](Cc1c[nH]cn1)C(=O)N[C@H](C(=O)N1CCC[C@H]1C(=O)N1CCC[C@H]1C(=O)O)C(C)C` ([pGlu]LWPRPHVPP-OH), the IC50 in assay [1] was found to be 1.09 µM.

In turn, `CC[C@H](C)[C@H](NC(=O)[C@@H]1CCCN1C(=O)[C@@H]1CCCN1C(=O)[C@H](CCCNC(=N)N)NC(=O)[C@@H]1CCCN1C(=O)[C@@H]1CCCN1C(=O)[C@H](Cc1c[nH]c2ccccc12)NC(=O)[C@@H]1CCCN1C(=O)[C@@H]1CCCN1C(=O)[C@H](Cc1c[nH]c2ccccc12)NC(=O)[C@@H]1CCC(=O)N1)C(=O)N1CCC[C@H]1C(=O)N1CCC[C@H]1C(=O)O` ([pGlu]WPPWPPRPPIPP-OH; C-terminus assumed) showed an IC50 in assay [1] of 3.47 µM.

Compound `CC(C)C[C@H](NC(=O)[C@@H]1CCCN1C(=O)[C@@H]1CCCN1C(=O)[C@H](CCCNC(=N)N)NC(=O)[C@@H]1CCCN1C(=O)[C@@H]1CCCN1C(=O)[C@H](Cc1c[nH]c2ccccc12)NC(=O)[C@@H]1CCCN1C(=O)[C@@H]1CCCN1C(=O)[C@H](Cc1c[nH]c2ccccc12)NC(=O)[C@@H]1CCC(=O)N1)C(=O)N1CCC[C@H]1C(=O)N1CCC[C@H]1C(=O)O` ([pGlu]WPPWPPRPPLPP-OH) had an IC50 in assay [1] of 3.37 µM.

Regarding `Nc1ccccc1C(=O)NCC(=O)N[C@@H](Cc1ccc([N+](=O)[O-])cc1)C(=O)N1CCC[C@H]1C(=O)O` [M1100, o-Aminobenzoylglycyl-p-nitro-L-phenylalanyl-L-proline] (H-[2Abz]G[Phe(4-NO2)]P-OH), the Km in assay [2] (2.5 mU ACE) amounted to 46.8 µM; in assay [2] (5 mU ACE), 79.4 µM; in assay [2] (10 mU ACE), 56.3 µM; in assay [2] (20 mU ACE), 65.9 µM; in assay [2] (40 mU ACE), 65.4 µM. Besides, the Vmax in assay [2] (2.5 mU ACE) is 120.0; in assay [2] (5 mU ACE), 129.3; in assay [2] (10 mU ACE) it was 122.9; in assay [2] (20 mU ACE), 126.5; in assay [2] (40 mU ACE), 126.6.

Regarding [pGlu]NWPRPKVPP, the “ACE inhibitory peptide assigned to bioactivity peak (in words)” value (shortened to “ACE inhibitory peptide assigned”) in assay [3] is on record as “ACE inhibitory peptides”.

For pE(I/L)WPRPHVPP, the “ACE inhibitory peptide assigned” value in assay [3] was “major bioactive compounds”.

On to pEQWPPGHH(I/L)PP, for which the entries for the “ACE inhibitory peptide assigned” value in assay [3] and in assay [3] (listed as peptide with m/z 1276) were “ACE inhibitory peptides” and “major bioactive compounds”, respectively.

Take pEWPPWPPRPP(I/L)PP: in assay [3], the “ACE inhibitory peptide assigned” value is recorded as “bioactive peptide”.
